In patent US4711890A, “Pharmaceutical compositions containing azanaphthalene-carboxamide derivatives, azanaphthalene-carboxamide derivatives and process for their use” (Rhone-Poulenc Sante, priority 1982, dated 1987):

How the values were obtained:
[1] = molecular target: T1, peripheral-type receptor sites for benzodiazepines (Rattus norvegicus, UniProt P16257); experiment: Affinity for the peripheral-type receptor sites for benzodiazepines: displacement of 3H-diazepam on rat kidney membranes; type: binding; conditions: for Ki: rat kidney membranes, 3H-diazepam displacement
T1 construct: on rat kidney membranes; from tissue; host or cells: rat kidney membranes
Experimental: The affinity of the compounds of formula (I) for the peripheral-type receptor sites was determined, using the procedure of BRAESTRUP et al., Proc. Natl. Acad. Sci. U.S.A., 1977, 74, 3805, on rat kidney membranes.

[2] = molecular target: cerebral receptor sites for benzodiazepines; experiment: Affinity for the cerebral-type receptor sites for benzodiazepines: displacement of 3H-diazepam on rat brain membranes; type: binding; conditions: 3H-diazepam displacement
Experimental: The affinity of the compounds of formula (I) for the cerebral receptor sites for benzodiazepines was determined, by the method of MOHLER et al, Life Sciences, 1977, 20, 2101, on rat brain membranes.

[3] = system: binding sites for [^3 H] diazepam in the brain; conditions: [3H] diazepam sites; cited from earlier work
[4] = system: binding sites for [^3 H] diazepam in the kidneys; conditions: kidneys / peripheral level, [3H] diazepam sites; cited from earlier work
[5] = GHAZAL et al., Egypt. Pharm. Bull., 1960, 42, 465; cited from earlier work

| SMILES | Ki [1] [nM] | Ki [2] [nM] | also measured |
| --- | --- | --- | --- |
| CCN(CC)C(=O)c1cc(-c2ccccc2Cl)nc2ccccc12 [Example 8, N,N-diethyl-2-(2-chlorophenyl)-quinoline-4-carboxamide] | 117 |  |  |
| CCC(C)N(C)C(=O)c1nc(-c2ccccc2)cc2ccccc12 (stereo not drawn) [Example 51, N-methyl-N-(1-methylpropyl)-3-phenylisoquinoline-1-carboxamide] | 45 |  |  |
| CCC(C)N(C)C(=O)c1cc(-c2ccccc2Cl)nc2ccccc12 (stereo not drawn) [Example 15, N-methyl-N-(1-methylpropyl)-2-(2-chlorophenyl)-quinoline-4-carboxamide] | 31 |  |  |
| O=C(c1cc(-c2ccccc2)nc2ccccc12)N1CCCCC1 [Example 4, 1-(2-phenylquinolin-4-yl)-carbonylpiperidine] |  | 40 |  |
| CCN(CC)C(=O)c1cc(-c2ccc(F)cc2)nc2ccccc12 [Example 10, N,N-diethyl-2-(4-fluorophenyl)-quinoline-4-carboxamide] | 160 | 210 |  |
| O=C1CN=C(c2ccccc2Cl)c2cc([N+](=O)[O-])ccc2N1 [clonazepam] |  |  | affinity / activity at brain (central) binding sites, in words [3]: very strong affinity; affinity / activity at kidney (peripheral) binding sites, in words [4]: virtually inactive |
| CCN(CC)C(=O)c1cc(-c2ccccc2)nc2ccccc12 [Example 1, N,N-diethyl-2-phenylquinoline-4-carboxamide] |  | 50 | pharmacological properties described in the literature [5]: uricosuric and anti-pyretic properties |
| CN1C(=O)CN=C(c2ccc(Cl)cc2)c2cc(Cl)ccc21 [Ro-5-4864, 7-chloro-5-(p-chlorophenyl)-1,3-dihydro-1-methyl-2H-1,4-benzodiazepin-2-one] |  |  | affinity / activity at brain (central) binding sites, in words [3]: inactive; affinity / activity at kidney (peripheral) binding sites, in words [4]: very active |
| CCN(CC)C(=O)c1cc(-c2ccc(C)cc2)nc2ccccc12 [Example 24, N,N-diethyl-2-(4-methylphenyl)-quinoline-4-carboxamide] |  | 330 |  |
| CC1CCCC(C)N1C(=O)c1cc(-c2ccccc2Cl)nc2ccccc12 (stereo not drawn) [Example 39, 1-{[2-(2-chlorophenyl)-quinolin-4-yl]-carbonyl}-2,6-dimethylpiperidine] | 54 |  |  |
| CCN(CC)C(=O)c1cc(-c2ccccc2F)nc2ccccc12 [Example 38, N,N-diethyl-2-(2-fluorophenyl)-quinoline-4-carboxamide] |  | 310 |  |
| CCN(CC)C(=O)c1nc(-c2ccccc2Cl)nc2ccccc12 [Example 22, N,N-diethyl-2-(2-chlorophenyl)-quinazoline-4-carboxamide] | 270 |  |  |
| CCC(C)N(C)C(=O)c1cc(-c2ccccc2)nc2ccccc12 (stereo not drawn) [Example 43, N-methyl-N-(1-methylpropyl)-2-phenylquinoline-4-carboxamide] | 100 |  |  |
| CCN(CC)C(=O)c1cc(-c2ccc(Cl)c(Cl)c2)nc2ccccc12 [Example 37, N,N-diethyl-2-(3,4-dichlorophenyl)-quinoline-4-carboxamide] | 117 |  |  |
| CCN(CC)C(=O)c1cc(-c2ccccc2)cc2ccccc12 [Example 20, N,N-diethyl-3-phenylnaphthalene-1-carboxamide] | 2 |  | preferential action on peripheral receptors (versus cerebral) ([1]; peripheral versus cerebral benzodiazepine receptors): act preferentially on peripheral receptors |
| O=C(c1cc(-c2ccccn2)nc2ccccc12)N1CCCCC1 [Example 3, 1-[2-(pyridin-2-yl)-quinolin-4-yl]-carbonylpiperidine] |  | 160 |  |
| O=C1CCN(C(=O)c2nc(-c3ccccc3)nc3ccccc23)CC1 [Example 53, 1-[(2-phenylquinazolin-4-yl)-carbonyl]-piperidin-4-one] |  | 270 |  |
| CNC1=Nc2ccc(Cl)cc2C(c2ccccc2)=[N+]([O-])C1 [Chlorodiazepoxide, reference compound] |  | 80 |  |
| O=C(c1cc(-c2ccccc2Cl)nc2ccccc12)N1CCCCC1 [Example 18, 1-[2-(2-chlorophenyl)-quinolin-4-yl]-carbonylpiperidine] | 360 |  |  |
| CCC(C)N(C)C(=O)c1cc(-c2ccccc2)cc2ccccc12 (stereo not drawn) [Example 21, N-methyl-N-(1-methylpropyl)-3-phenylnaphthalene-1-carboxamide] | 58 |  |  |
| O=C(c1cc(-c2ccccc2)nc2ccccc12)N1CCOCC1 [Example 5, 4-(2-phenylquinolin-4-yl)-carbonylmorpholine] |  | 90 |  |
| CCC(C)N(CC)C(=O)c1cc(-c2ccccc2Cl)nc2ccccc12 (stereo not drawn) [Example 17, N-ethyl-N-(1-methylpropyl)-2-(2-chlorophenyl)-quinoline-4-carboxamide] | 9 |  |  |
| O=C(c1nc(-c2ccccc2)nc2ccccc12)N1CCCC1 [Example 26, 1-[(2-phenylquinazolin-4-yl)-carbonyl]-pyrrolidine] |  | 90 |  |
| CCN(CC)C(=O)c1nc(-c2ccccc2)nc2ccccc12 [Example 25, N,N-diethyl-2-phenylquinazoline-4-carboxamide] |  | 390 |  |
| O=C(c1nc(-c2ccccc2)nc2ccccc12)N1CCCCC1 [Example 27, 1-[(2-phenylquinazolin-4-yl)-carbonyl]-piperidine] |  | 70 |  |
| CCN(CCC1CCNCC1)C(=O)c1cc(-c2ccccc2)nc2ccccc12 [Example 49, N-ethyl-N-[2-(piperidin-4-yl)-ethyl]-2-phenylquinoline-4-carboxamide] |  | 400 |  |
| O=C(c1cc(-c2ccccc2)nc2ccccc12)N1CCCC1 [Example 11, 1-(2-phenylquinolin-4-yl)-carbonylpyrrolidine] |  | 130 |  |
| CCC(C)N(C(=O)c1cc(-c2ccccc2Cl)nc2ccccc12)C(C)CC (stereo not drawn) [Example 16, N,N-di-(1-methylpropyl)-2-(2-chlorophenyl)-quinoline-4-carboxamide] | 72 |  |  |
